Source: PubChem BioAssay AID2060902 (Molecular Pharmacology Branch, DTP, NCI, 2025)

Tested on: 485368-065-R3-J5-PDC spheroids with HUVEC/MSC, viability
Assay: Anticancer human tumor 485368-065-R3-J5-PDC patient-derived pancreatic carcinoma cell line growth inhibition [RAS]
Details: for IC50: curve of first compound; for viability, T/C: stronger effect = lower value; active means viability on the fitted dose curve at most 10% of control; inactive means the rest
Summary of the method: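 Agents were tested in combination matrices in half-log decrements from a top concentration at or near clinical Cmax (10 microM if undetermined). Targets were multi-cell spheroids of tumour lines plus HUVEC and MSC stromal cells.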

[1] = second compound 0.000949 µM, first compound 0.00316 µM
[2] = second compound 0.000949 µM, first compound 0.01 µM
[3] = second compound 0.000949 µM, first compound 0.0316 µM
[4] = second compound 0.000949 µM, first compound 0.1 µM
[5] = second compound 0.000949 µM, first compound 0.316 µM
[6] = second compound 0.000949 µM, first compound 1 µM
[7] = second compound 0.003 µM, first compound 0.00316 µM
[8] = second compound 0.003 µM, first compound 0.01 µM
[9] = second compound 0.003 µM, first compound 0.0316 µM
[10] = second compound 0.003 µM, first compound 0.1 µM
[11] = second compound 0.003 µM, first compound 0.316 µM
[12] = second compound 0.003 µM, first compound 1 µM
[13] = second compound 0.00949 µM, first compound 0.00316 µM
[14] = second compound 0.00949 µM, first compound 0.01 µM
[15] = second compound 0.00949 µM, first compound 0.0316 µM
[16] = second compound 0.00949 µM, first compound 0.1 µM
[17] = second compound 0.00949 µM, first compound 0.316 µM
[18] = second compound 0.00949 µM, first compound 1 µM
[19] = second compound 0.03 µM, first compound 0.00316 µM
[20] = second compound 0.03 µM, first compound 0.01 µM
[21] = second compound 0.03 µM, first compound 0.0316 µM
[22] = second compound 0.03 µM, first compound 0.1 µM
[23] = second compound 0.03 µM, first compound 0.316 µM
[24] = second compound 0.03 µM, first compound 1 µM
[25] = second compound 0.0949 µM, first compound 0.00316 µM
[26] = second compound 0.0949 µM, first compound 0.01 µM
[27] = second compound 0.0949 µM, first compound 0.0316 µM
[28] = second compound 0.0949 µM, first compound 0.1 µM
[29] = second compound 0.0949 µM, first compound 0.316 µM
[30] = second compound 0.0949 µM, first compound 1 µM
[31] = second compound 0.3 µM, first compound 0.00316 µM
[32] = second compound 0.3 µM, first compound 0.01 µM
[33] = second compound 0.3 µM, first compound 0.0316 µM
[34] = second compound 0.3 µM, first compound 0.1 µM
[35] = second compound 0.3 µM, first compound 0.316 µM
[36] = second compound 0.3 µM, first compound 1 µM
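Further: spheroids exposed to agents for seven days before readout.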

C=CC(=O)Nc1cc(Nc2nccc(-c3cn(C)c4ccccc34)n2)c(OC)cc1N(C)CCN(C)C + CCn1c(-c2cc(N3CCN(C)CC3)cnc2C(C)OC)c2c3cc(ccc31)-c1csc(n1)CC(NC(=O)C1CC1C)C(=O)N1CCCC(N1)C(=O)OCC(C)(C)C2
< 3.16 nM: IC50 (second compound 0.000949 µM) | IC50 (second compound 0.003 µM) | IC50 (second compound 0.00949 µM) | IC50 (second compound 0.03 µM) | IC50 (second compound 0.0949 µM) | IC50 (second compound 0.3 µM)
active: viability, T/C [18] 7.7% | viability, T/C [22] 9.51% | viability, T/C [23] 7.35% | viability, T/C [24] 5.44% | viability, T/C [26] 9.53% | viability, T/C [27] 8.8% | viability, T/C [28] 6.02% | viability, T/C [29] 6.17% | viability, T/C [30] 3.77% | viability, T/C [31] 8.98% | viability, T/C [32] 8.98% | viability, T/C [33] 7.33% | viability, T/C [34] 7.51% | viability, T/C [35] 4.7% | viability, T/C [36] 3.38%
inactive: viability, T/C [1] 38.2% | viability, T/C [2] 34.1% | viability, T/C [3] 30.4% | viability, T/C [4] 28.6% | viability, T/C [5] 25.3% | viability, T/C [6] 17.8% | viability, T/C [7] 21.1% | viability, T/C [8] 19.9% | viability, T/C [9] 18.6% | viability, T/C [10] 14.6% | viability, T/C [11] 13.4% | viability, T/C [12] 10.9% | viability, T/C [13] 16.4% | viability, T/C [14] 15.7% | viability, T/C [15] 15.5% | viability, T/C [16] 13.1% | viability, T/C [17] 9.97% | viability, T/C [19] 13% | viability, T/C [20] 11.8% | viability, T/C [21] 9.7% | viability, T/C [25] 8.87%

CC(Nc1ccc2c(c1)OCCn1cc(N3C(=O)OCC3C(F)F)nc1-2)C(N)=O (stereo unspecified) + CCn1c(-c2cc(N3CCN(C)CC3)cnc2C(C)OC)c2c3cc(ccc31)-c1csc(n1)CC(NC(=O)C1CC1C)C(=O)N1CCCC(N1)C(=O)OCC(C)(C)C2
inactive: viability, T/C [3] 26.2% | viability, T/C [4] 23.7% | viability, T/C [5] 24.2% | viability, T/C [6] 18.2% | viability, T/C (second compound 0.000949 µM, first compound 3.16 µM) 17.5% | viability, T/C (second compound 0.000949 µM, first compound 10 µM) 11.3% | viability, T/C [9] 15% | viability, T/C [10] 13.3% | viability, T/C [11] 12.6% | viability, T/C [12] 11.2% | viability, T/C [15] 10.8% | viability, T/C [16] 11.4% | viability, T/C [21] 10.3%
active: viability, T/C (second compound 0.003 µM, first compound 3.16 µM) 10.1% | viability, T/C (second compound 0.003 µM, first compound 10 µM) 7.35% | viability, T/C [17] 9.57% | viability, T/C [18] 9.69% | viability, T/C (second compound 0.00949 µM, first compound 3.16 µM) 9.37% | viability, T/C (second compound 0.00949 µM, first compound 10 µM) 6.07% | viability, T/C [22] 9.36% | viability, T/C [23] 8.76% | viability, T/C [24] 8.73% | viability, T/C (second compound 0.03 µM, first compound 3.16 µM) 7.08% | viability, T/C (second compound 0.03 µM, first compound 10 µM) 4.24% | viability, T/C [27] 7.86% | viability, T/C [28] 6.77% | viability, T/C [29] 7.07% | viability, T/C [30] 5.28% | viability, T/C (second compound 0.0949 µM, first compound 3.16 µM) 4.78% | viability, T/C (second compound 0.0949 µM, first compound 10 µM) 2.97% | viability, T/C [33] 6.57% | viability, T/C [34] 6.98% | viability, T/C [35] 5.66% | viability, T/C [36] 4.05% | viability, T/C (second compound 0.3 µM, first compound 3.16 µM) 4.16% | viability, T/C (second compound 0.3 µM, first compound 10 µM) 2.04%
< 31.6 nM: IC50 (second compound 0.000949 µM) | IC50 (second compound 0.003 µM) | IC50 (second compound 0.00949 µM) | IC50 (second compound 0.03 µM) | IC50 (second compound 0.0949 µM) | IC50 (second compound 0.3 µM)

O=C(c1ccc(F)c(F)c1Nc1ccc(I)cc1F)N1CC(O)([C@@H]2CCCCN2)C1 + CCn1c(-c2cc(N3CCN(C)CC3)cnc2C(C)OC)c2c3cc(ccc31)-c1csc(n1)CC(NC(=O)C1CC1C)C(=O)N1CCCC(N1)C(=O)OCC(C)(C)C2
< 3.16 nM: IC50 (second compound 0.000949 µM) | IC50 (second compound 0.003 µM) | IC50 (second compound 0.00949 µM) | IC50 (second compound 0.03 µM) | IC50 (second compound 0.0949 µM) | IC50 (second compound 0.3 µM)
active: viability, T/C [6] 3.33% | viability, T/C [11] 4.68% | viability, T/C [12] 1.33% | viability, T/C [15] 10.6% | viability, T/C [16] 5.68% | viability, T/C [17] 1.77% | viability, T/C [18] 1.26% | viability, T/C [20] 8.49% | viability, T/C [21] 6.41% | viability, T/C [22] 2.18% | viability, T/C [23] 1.53% | viability, T/C [24] 1.44% | viability, T/C [25] 6.98% | viability, T/C [26] 5.08% | viability, T/C [27] 3% | viability, T/C [28] 1.9% | viability, T/C [29] 1.88% | viability, T/C [30] 1.97% | viability, T/C [31] 6.37% | viability, T/C [32] 3.9% | viability, T/C [33] 2.16% | viability, T/C [34] 2.03% | viability, T/C [35] 2.03% | viability, T/C [36] 2.14%
inactive: viability, T/C [1] 32.9% | viability, T/C [2] 29.9% | viability, T/C [3] 22.8% | viability, T/C [4] 17.6% | viability, T/C [5] 12.8% | viability, T/C [7] 19.3% | viability, T/C [8] 20.3% | viability, T/C [9] 14.9% | viability, T/C [10] 10.8% | viability, T/C [13] 16.1% | viability, T/C [14] 12.9% | viability, T/C [19] 10.3%
